In patent US20140011930A1, “Bio-Renewable Carboxylic Acid Esters and Mixtures Thereof Useful as Plasticizers” (TEKNOR APEX COMPANY, priority 2012, published 2014):

Key:
Type in all cases: physicochemical
[1] = Oven Stability (210° C.) (ASTM D-1203)
[2] = Tensile, 100% modulus, elongation of PVC compounds (ASTM D-638); design: 100% Modulus: unit not given here
[3] = Gamma irradiation stability (yellowness index YI)
Excerpt: Additional advantages of the compounds of the invention are their low cytotoxicity and resistance to gamma radiation especially when compared to the industry standard of di-2-ethylhexyl phthalate (DEHP). Gamma radiation stability is important since it allows for the convenient sterilization of articles prepared from PVC compound. The key performance standard is non-yellowing of the PVC compound after exposure to gamma radiation. An example of the improvement in gamma stability is shown below.

[4] = Specific Gravity of PVC compounds (ASTM D-792)
[5] = % Volatile Loss (ASTM D-1203)
[6] = Hardness (Shore) of PVC compounds (ASTM D-2240)
[7] = Dynamic Heat Stability (ASTM D-2538)
[8] = Brittle Point (ASTM D-746)
[9] = Loop Spew compatibility test (ASTM D-3291)
Procedure: This plasticizer was evaluated in the same formulations as test compounds 1, 2, 3 along with DEHP and Example 1.
PVC compounds were prepared with the plasticizers described in Example 1 and Example 2, and a commercial sample of DEHP, containing standard heat stabilizers, antioxidant and a lubricant. The compounds were evaluated in standard laboratory tests according the following ASTM methods: […]

[10] = PVC Test Compound 59-67 A Gauge
[11] = PVC Test Compound 59-67 A Gauge, DEHP vs Example 1/ESO series
[12] = PVC Test Compound 80-85 C Gauge
[13] = PVC Test Compound 80-85 C Gauge, DEHP vs Example 1/ESO series
[14] = PVC Test Compound 81-85 A Gauge
[15] = Gamma Radiation = 35 kGys (3.5 Mrads)
[16] = Gamma Radiation = 35 kGys (3.5 Mrads), oven aging 48 hr. at 50° C.
[17] = PVC Test Compound-Gamma Irradiation Stability-A

CCCCC(CC)COC(=O)c1ccccc1C(=O)OCC(CC)CCCC (stereo not shown) [DEHP, di-(2-ethylhexyl) phthalate]
Oven Stability (210° C.) Decomposition Failure [1, 10]: 50 min
Oven Stability (210° C.) Initial Color [1, 10]: Clear
Oven Stability (210° C.) Initial Color Failure [1, 10]: 15 min
Oven Stability (210° C.) Decomposition Failure [1, 11]: 60 min
Oven Stability (210° C.) Initial Color [1, 11]: Clear
Oven Stability (210° C.) Initial Color Failure [1, 11]: 15 min
Oven Stability (210° C.) Decomposition Failure [1, 12]: 50 min
Oven Stability (210° C.) Initial Color [1, 12]: Clear
Oven Stability (210° C.) Initial Color Failure [1, 12]: 15 min
Oven Stability (210° C.) Decomposition Failure [1, 13]: 50 min
Oven Stability (210° C.) Initial Color [1, 13]: Clear
Oven Stability (210° C.) Initial Color Failure [1, 13]: 10 min
Oven Stability (210° C.) Decomposition Failure [1, 14]: 50 min
Oven Stability (210° C.) Initial Color [1, 14]: Clear
Oven Stability (210° C.) Initial Color Failure [1, 14]: 15 min
100% Modulus [2, 10]: 554
% Elongation [2, 10]: 439%
Tensile (psi) [2, 10]: 1559 psi
100% Modulus [2, 11]: 518
% Elongation [2, 11]: 451%
Tensile (psi) [2, 11]: 1564 psi
100% Modulus [2, 12]: 3440
% Elongation [2, 12]: 281%
Tensile (psi) [2, 12]: 3840 psi
100% Modulus [2, 13]: 3617
% Elongation [2, 13]: 282%
Tensile (psi) [2, 13]: 4083 psi
100% Modulus [2, 14]: 1490
% Elongation [2, 14]: 380%
Tensile (psi) [2, 14]: 2875 psi
Absolute YI After 35 kGys Gamma [3, 15]: 12.24
Change in YI from Original After 35 kGys Gamma [3, 15]: 5.46
Absolute YI After 35 kGys Gamma and Oven Aging (48 hr. at 50° C.) [3, 16]: 17.58
Change in YI from Original After 35 kGys Gamma and Oven Aging (48 hr. at 50° C.) [3, 16]: 10.80
Absolute YI Original ([3]; before irradiation): 6.78
Specific Gravity [4, 10]: 1.16
Specific Gravity [4, 11]: 1.16
Specific Gravity [4, 12]: 1.28
Specific Gravity [4, 13]: 1.28
Specific Gravity [4, 14]: 1.23
Specific Gravity [4, 17]: 1.24
% Volatile Loss [5, 10]: 3.54%
% Volatile Loss [5, 11]: 4.58%
% Volatile Loss [5, 12]: 1.56%
% Volatile Loss [5, 13]: 1.67%
% Volatile Loss [5, 14]: 2.73%
Hardness Shore A (15 sec delay) [6, 10]: 60
Hardness Shore A (instant) [6, 10]: 68
Hardness Shore A (15 sec delay) [6, 11]: 56
Hardness Shore A (instant) [6, 11]: 60
Hardness Shore C (10 sec delay) [6, 12]: 85
Hardness Shore C (instant) [6, 12]: 93
Hardness Shore C (10 sec delay) [6, 13]: 85
Hardness Shore C (instant) [6, 13]: 90
Hardness Shore C (10 sec delay) [6, 14]: 83
Hardness Shore C (instant) [6, 14]: 90
Hardness Shore A (15 sec delay) [6, 17]: 86
Hardness Shore A (instant) [6, 17]: 91
Dynamic Heat Stability [7, 10]: 72 min
Dynamic Heat Stability [7, 11]: 54
Dynamic Heat Stability [7, 12]: 19 min
Dynamic Heat Stability [7, 13]: 7 min
Dynamic Heat Stability [7, 14]: 40 min
Brittle Point ° C. [8, 10]: −48.5 °C
Brittle Point ° C. [8, 11]: −50.5 °C
Brittle Point ° C. [8, 12]: −17.0 °C
Brittle Point ° C. [8, 13]: −22 °C
Brittle Point ° C. [8, 14]: −34.5 °C
Loop Spew [9, 10]: None
Loop Spew [9, 11]: None
Loop Spew [9, 12]: None
Loop Spew [9, 13]: None
Loop Spew [9, 14]: None
